Test results reported in BindingDB's records for patent US9611261 (Amgen, 2017).
pIC50: −log10 of the molar value.

Molecular target: Cathepsin D (Homo sapiens, UniProt P07339)
Assay: In Vitro Enzymatic FRET Assay
Procedure: Recombinant Cat D was expressed in CHO cells. The assay buffer for CathepsinD is 0.05 M citrate pH 3.5, 10% DMSO final, 5 mM CHAPS. […] The assays are effectively started by the addition of different FRET substrates (20 nM for Cat D) and the combination is incubated for one hour. The FRET assay is terminated with by addition of Tris buffer, which raises the pH to neutrality, and the fluorescence is determined. The FRET substrate is a peptide with commercially available fluorophore and quencher, on opposite sides of the BACE cleavage site. […] Proteolytic cleavage of the FRET substrate releases quenching of fluorescence (Cat D excitation 500 nm and emission 580 nm).

Cathepsin D, sequence (P07339 65-162 limits assumed): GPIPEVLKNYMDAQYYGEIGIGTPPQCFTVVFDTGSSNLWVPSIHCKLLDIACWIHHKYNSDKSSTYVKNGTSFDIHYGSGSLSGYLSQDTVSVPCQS
Cathepsin D, sequence (P07339 169-412 limits assumed): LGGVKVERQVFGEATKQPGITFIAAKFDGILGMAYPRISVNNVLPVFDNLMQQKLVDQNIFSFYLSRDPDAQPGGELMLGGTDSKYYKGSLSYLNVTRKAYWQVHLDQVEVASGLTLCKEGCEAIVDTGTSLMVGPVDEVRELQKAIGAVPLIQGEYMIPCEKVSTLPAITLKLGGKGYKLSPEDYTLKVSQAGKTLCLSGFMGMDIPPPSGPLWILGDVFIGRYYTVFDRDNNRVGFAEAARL

Row | Structure (SMILES) | pIC50
1 | COc1cc(Cl)cnc1C(=O)Nc1ccc(F)c([C@@]2(CF)N=C(N)O[C@@H]3C[C@@H]32)c1 [US9611261, Example 297] | 3.08
2 | NC1=N[C@@](c2cc(NC(=O)c3cnc(CCC#CC4CC4)cn3)ccc2F)(C(F)F)[C@H]2C[C@H]2O1 [US9611261, Example 411] | 3.44
